Values joined by “and” are separate entries in the source; they are usually repeats but may differ in a detail not shown here. Identical values can stand only once. Like-named read-outs stand apart in the source and are kept apart here.
Assays:
[1] = test system: pig internal anal sphincter muscle; experiment: In vitro contraction of internal anal sphincter muscle strips in superfusion organ bath; assay type: cell-based; details: for EC50: Sus scrofa; for contraction of smooth muscle strips from the IAS: dose range 10^−2M to 10^−8M
Protocol: Tissue was obtained from female Large White pigs from a local abattoir. Pieces of internal anal sphincter muscle were cut and the tissue was transferred immediately to Krebs solution at 4° C. (120 mM NaCl, 5.9 mM KCl, 15.4 mM Na2HCO3, 1.2 mM NaH2PO4, 2.5 mM CaCl2, 1.2 mM MgCl2, 11.5 mM glucose, equilibrated with 97% oxygen and 3% carbon dioxide to maintain the pH at 7.4±0.05). The epithelium of the anal canal was removed along with the submucosa. Strips of the internal anal sphincter (IAS) were cut, each measuring approximately 1×1×7 mm, weighing 2 mg to 8 mg and containing parallel muscle bundles. Fine 5-0 silk ligatures were tied to each end and the strips mounted for isometric tension recording in superfusion organ baths (capacity 0.2 ml)^19 as shown in FIG. 1. The muscle strip 1 is held by a thread 2 to secure it in position within the Perspex jacket 3. The strips were perfused continuously with Krebs solution (37° C.) at a rate of 1 ml/min introduced via an inflow 4 and exiting via an overflow 5. This apparatus allows six strips to be studied simultaneously. The strips were initially loaded with 1 g tension and allowed to equilibrate for at least 90 minutes. Tension was measured by Pioden dynamometer UF1 transducer (Pioden Controls, Canterbury, UK) involving a tension transducer 6 and ring electrodes 7 and 7a, and recorded both on a six channel Tekman 900 pen recorder (Tekman Electronics, Learnington Spa, UK) and using Chart v3.6 and MacLab Data Acquisition System (AD Instruments, Australia).
Phenylephrine (Sigma Chemical Co., Poole, UK), methoxamine racemate and the four methoxamine isomers were dissolved in Krebs solution and tested for their effect on IAS tone. Methoxamine racemate, that is to say, an equimolar mixture of the four isomers, was produced by Prosyth Limited, Acton, Sudbury, Suffolk. The four isomers (called peaks 1 to 4), were separated as described in Example 3. Peak 2 is 1R,2S-methoxamine. The 1R,2S isomer was also synthesised as described in Example 4. It has been confirmed by crystallography that peak 2 is 1R,2S-methoxamine.
IAS strips developed intrinsic tone during the equilibrium period. After equilibration increasing concentrations of each of the test compounds were added for 20 second periods, with intervening washout periods of at least ten minutes, until the tone had returned to baseline.
Results are expressed as mean (standard error of the mean) and the number of surgical specimens from which these strips were derived. A maximum of six strips were used from each pig for each test compound.
Test compound-induced increases in tone were calculated by taking the peak tone after application of the test compound and […]. This figure was then expressed as a percentage of maximal increase in tone seen across the dose range used (10^−2M to 10^−8M). All analysis was performed using Chart v3.6 software.
EC50 values were calculated by plotting concentration-response curves for each muscle strip. The dose causing 50% of maximal contraction was calculated by linear regression. EC50 values for different drugs were compared using a two-tailed t-test, assuming unequal variance and with p<0.05 considered significant.

[2] = test system: anaesthetised minipigs; parameters: species or system Göttingen-minipigs; details: in vivo
Protocol: (§1) The test substances were administered topically to the anoderm using a volume of 0.5 ml/animal. The interval between each observation period was 20 minutes. The administration was performed employing a 1 ml syringe inserted approximately 1 cm into the anal canal. The test substances were administered slowly while the syringe was rotated. After the preparation and a period of at least 15 minutes for stabilisation of the circulatory functions, the animals were treated with the placebo or the selected dose levels of the test substance by administration to the anoderm.
ECG recordings were made using the standard limb leads I, II and III as well as augmented limb leads aVR, aVL and aVF. A standardisation of 10 mm/1 mV was used and a paper speed of 50 mm/sec. The recordings were carried out using a HELLIGE Marquette mac 5000 12SL. The recordings were examined visually for any arrhythmias and abnormalities of the electrical complexes. In addition, the following parameters were evaluated for limb lead II: Heart rate [beats/min]; P segment, [msec]; P-Q interval, [msec]; QRS complex [msec]; Q-T interval, [msec]. The QTc values [msec] were calculated according to the van de Water-formula: QTc=QT−0.087 (R-R distance−1000)
For each measurement period the heart rate, ECG and the blood pressure in the a. femoralis were measured continuously and recorded immediately before and 5, 10, 15, 20, 40 and 60 minutes after start of administration for periods of approx. 30 sec, and then in intervals of 20 minutes until any effect had subsided.

[3] = test system: anaesthetised minipigs; experiment: Peripheral arterial blood pressure in anaesthetised minipigs after topical administration to the anoderm; assay type: in vivo, Göttingen-minipigs; details: 0.5 ml of 0.3%, 1%, 3% gels
Protocol: as §1
An intraarterial indwelling catheter (size 0.8×1.4 mm, B. Braun Melsungen AG, D-34212 Melsungen, Germany) was connected to a pressure transducer (DTX, Pfrimmer-Viggo, Erlangen, Germany) recording the systolic and diastolic arterial blood pressure in the right or left a. femoralis. The signal was boosed by a Hellige Servomed SMV 178 T amplifier (Hellige GmbH, D-79100 Freiburg, Germany). The blood pressure was recorded and monitored with a Hellige Cardiognost EK 512 P (paper speed: 2.5 mm/sec). Systolic and diastolic blood pressure [mmHg] were determined and the mean pressure was calculated according to the following formula: Mean blood pressure [mmHg]=(systolic pressure+(2×diastolic pressure))/3 Heart Rate and Electrocardiography […]

[4] = test system: anoderm; experiment: Macroscopical inspection of the anoderm; assay type: in vivo, Göttingen-minipigs; details: 0.3%, 1%, or 3%
Protocol: A macroscopical inspection of the anoderm was carried out during the experiments. Any obvious irritation and/or erythema caused by the fairly low pH value of the test substance formulation was reported.

[5] = Methoxamine plasma levels in minipigs after topical administration to the anoderm; assay type: in vivo, Göttingen-minipigs; details: for mean peak plasma levels: 0.5 ml topical, two pigs
Protocol: as §1
Blood samples (5 ml/time-point) were taken immediately before and 10, 20, 40, 60, 90, and 120 minutes after start of administration, and were collected into lithium-heparin containers. The blood samples were immediately cooled at +2° C. to +8° C. by the use of an IsoTherm-Rack system (Eppendorf-Netheler-Hinz GmbH, D-22331 Hamburg, Germany) and the whole blood was processed for […]. Plasma was prepared by centrifugation (5 min, 4000 rpm, at +5° C.) and split into aliquots of approx. 1 ml each. Both plasma aliquots were immediately frozen at −80° C. at least and stored at this temperature until dispatch of one aliquot on dry ice for analysis.
The samples were analysed for the methoxamine plasma levels. The results are presented in Appendix 3.

[6] = test system: anaesthetised minipigs; experiment: Mean anal resting pressure (MARP) in anaesthetised minipigs after topical administration to the anoderm; assay type: in vivo, Göttingen-minipigs; details: for effect on internal anal sphincter pressure and blood pressure: pigs in vivo
Protocol: • a) Placebo in 4% w/w gel • b) 0.3% by weight 1R,2S-methoxamine in 4% w/w gel • c) 1% by weight 1R,2S-methoxamine in 4% w/w gel • d) 3% by weight 1R,2S-methoxamine in 4% w/w gel • The 4% w/w gel comprises 4 g of hydroxypropylmethyl cellulose in 96 ml of 0.5M acetate buffer. 1% by weight 1R,2S-methoxamine in 4% w/w gel comprises 1 g of 1R,2S-methoxamine in 99 g of the 4% gel. Animals/Animal Maintenance
Göttingen-minipigs obtained from Ellegaard Göttingen Minipigs ApS, Soro Landevej 302, DK-4261 Dalmose, Denmark were used for the investigation. […] Four male animals were used. Animal no. 2 was replaced by animal no. 4, see below.
The minipigs were anaesthetised with a chloralose-urethane mixture (ratio 1+5). Additional anaesthesia was given when needed. To ensure a stable general condition of the minipig, blood gases and pH-value were measured in blood obtained from the right or left a. femoralis using a blood gas analyser ABL 70 (Radiometer, Copenhagen, Denmark) before start of experiment. Ringer solution (5 ml/kg b.w./h) was given continuously to compensate for fluid losses. The body temperature of the animals was maintained at 38° C. throughout the experiment of external heating.
as §1
The anal resting pressure was measured by introduction of a manometric probe (Unisensor Microtipcatheter 8104-00-9409-D; Medical Measurement Systems b.v., Collosseum 25, NL-7521P.V. Enschede, The Netherlands) into the rectum three times. The anal resting pressure taken as a mean of these three measurements (MARP) was recorded with a Rikadenki Multipenrecorder.

[7] = test system: anaesthetised minipigs; experiment: Reactivity of the circulatory functions to arterenol or isoproterenol; assay type: in vivo, Göttingen-minipigs; details: any of the gels
Protocol: Before the first administration and at further suitable times after the administration, isoproterenol was administered intravenously for control purposes. Arterenol (norephinephrine hydrochloride, also known as L-noradrenaline) was administered for control purposes at the end of the study only after completing the collection of the blood samples for toxicokinetics.

[8] = test system: human subjects; details: cited from earlier work
[9] = test system: patients with incontinence; details: cited from earlier work
[10] = IAS smooth muscle strips, n=24(4), read-out: EC50 values
[11] = pig IAS strips, Table 1, read-out: EC50 value μM (±SE)

For `COc1ccc(OC)c(C(O)C(C)N)c1` (racemic) [methoxamine racemate, 2-amino-1-(2,5-dimethoxyphenyl)-1-propanol], the EC50 [1, 10] was 0.058 µM, the EC50 [1, 11] was 58.3 µM and the “contraction of smooth muscle strips from the IAS” value (“contraction … from the IAS” for short) [1] was “caused a dose-dependent contraction”.
For `COc1ccc(OC)c([C@@H](O)C(C)N)c1` (single isomer, unassigned) [1R,2S-methoxamine], the heart rate ([2]; Göttingen, minipig, 2 h) was “approx. 100 beats/min”, the “increase in the heart rate” value ([2]; Göttingen, minipig, 2 h) was 29% and the “influence on P-segment, P-Q interval, Q-T interval, QTc value and QRS complex” value [2] was “no substance-related influence”. For the same compound, the “prolongation of the QT-interval” value [2] was “no evidence was noted for a prolongation of the QT-interval”, the “ventricular premature complexes (visual assessment of ECG)” value [2] was “did not reveal any ventricular premature complexes” and the “systolic, diastolic or mean blood pressure” value [3] was “not influenced”. The “macroscopic inspection: pathological changes” value [4] was “No pathological changes were observed”, the EC50 ([1]; chemically synthesised 1R,2S isomer, pig IAS strips, read-out: EC50) was 10.5 µM and the EC50 [1, 11] was 17.6 µM. For the same compound, the “contraction … from the IAS” value [1] was “caused dose dependent contraction”, the “potency at inducing contraction of internal anal sphincter muscle in vitro relative to phenylephrine” value ([1]; in vitro) was “at least four times more potent” and the “potency relative to methoxamine racemate” value ([1]; racemate = equimolar mixture of all four isomers) was “at least four times the potency”. For the same compound, the maximum plasma levels ([5]; 0.3% formulation) was 6 ng methoxamine/ml plasma, the “time of peak plasma levels” value ([5]; 0.3% gel) was 40 min and the “mean peak plasma levels” value ([5]; 0.3% gel) was 4.90 ng/mL and 6.97 ng/mL. The “time of maximum plasma levels following application” value ([5]; 0.3%, 1% and 3% formulations) was “approximately 40 minutes”, the maximum plasma levels ([5]; 1% formulation) was 10 ng methoxamine/ml plasma and the “mean peak plasma levels” value ([5]; 1.0% gel) was 9.88 ng/mL and 11.0 ng/mL. The maximum plasma levels ([5]; 3% formulation) was 56 ng methoxamine/ml plasma, the “mean peak plasma levels” value ([5]; 3.0% gel) was 50.4 ng/mL and 61.3 ng/mL and the “increase in MARP compared to the start value” ([6]; 0.5 ml of 0.3% gel) was 73%. The “period of MARP increase” value ([6]; 0.5 ml of 0.3% gel) was 110 min, the “start of MARP increase after administration” value ([6]; 0.5 ml of 0.3% gel) was 5 min and the MARP ([6]; 0.5 ml of 0.3% gel, topical to anoderm, average) was 50 mmHg. The “increase in MARP” value ([6]; 0.5 ml of 1% gel) was 227%, the “time after application to MARP increase” value ([6]; 0.5 ml of 1% gel) was no more than 20 min and the MARP ([6]; 0.5 ml of 1% gel, average) was 64 mmHg. The MARP ([6]; 0.5 ml of 3% gel) was 70 mmHg, the MARP ([6]; 0.5 ml of 3% gel, listed as IR,2S-methoxamine) was “approx. 70 mmHg” and the “effect on internal anal sphincter pressure and blood pressure” value ([6]; 0.5 ml of gel containing 1% or 0.3% by weight (5 mg and 1.5 mg), topical) was “increase internal anal sphincter pressure without any effect on blood pressure”. The “effect on internal anal sphincter pressure and blood pressure” value ([6]; gels containing 1% by weight and even as little as 0.1% by weight) was “increase internal anal sphincter pressure without any effect on blood pressure” and the “expected reactions to arterenol or isoproterenol” value [7] was “not influenced”.
For `CNC[C@H](O)c1cccc(O)c1` [Phenylephrine], the “duration of rise in resting anal pressure (median)” value ([8]; 10% gel, normal human subjects) is listed as 7 h, the “rise in resting anal pressure” value ([8]; 10% to 20% by weight gels, patients with low resting pressures and incontinence) is listed as “no significant rise in resting anal pressure” and the “rise in resting anal pressure” value ([8]; 30% and 40% gels, patients with low resting pressures and incontinence) is listed as “increases did achieve statistical significance”. The “rise in resting anal pressure” value ([8]; gel comprising 10% by weight, applied to the anus of normal human subjects) was 33%, the EC50 [1, 10] was 75 µM and the EC50 [1, 11] was 74.7 µM. The “contraction … from the IAS” value [1] was “caused a dose-dependent contraction”, the “subjective improvement in continence” value ([9]; 10% gel, patients with faecal leakage after ileoanal pouch construction) was “significantly greater subjective improvement in continence compared to placebo” and the “incontinence scores, resting anal canal pressure or anodermal blood flow” value ([9]; 10% gel, randomised controlled trial, 36 patients with incontinence) was “no significant overall improvements”. The local side effect ([9]; topical preparations of the order of 30-40% by weight) was “perianal burning has been reported”.
